Consider 35 molecules from patent US20230382910A1, “HETEROARYL COMPOUNDS FOR THE TREATMENT OF PAIN” (VERTEX PHARMACEUTICALS INCORPORATED, priority 2022, published 2023).

human NaV 1.8, sequence (Q9Y5Y9 126-399 limits assumed): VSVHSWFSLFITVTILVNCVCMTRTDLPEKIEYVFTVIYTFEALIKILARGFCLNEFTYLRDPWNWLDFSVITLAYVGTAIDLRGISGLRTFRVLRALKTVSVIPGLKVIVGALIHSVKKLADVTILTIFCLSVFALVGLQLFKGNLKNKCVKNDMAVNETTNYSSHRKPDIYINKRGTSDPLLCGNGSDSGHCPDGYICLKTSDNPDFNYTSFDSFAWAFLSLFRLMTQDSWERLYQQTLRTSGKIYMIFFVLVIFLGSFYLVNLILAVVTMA
human NaV 1.8, sequence (Q9Y5Y9 660-890 limits assumed): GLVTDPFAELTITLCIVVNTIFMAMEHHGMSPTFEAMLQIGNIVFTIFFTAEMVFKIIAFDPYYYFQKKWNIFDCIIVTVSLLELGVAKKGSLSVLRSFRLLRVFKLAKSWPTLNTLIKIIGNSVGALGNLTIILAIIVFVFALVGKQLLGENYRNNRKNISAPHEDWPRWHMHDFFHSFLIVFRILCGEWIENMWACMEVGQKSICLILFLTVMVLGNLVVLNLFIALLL
human NaV 1.8, sequence (Q9Y5Y9 1148-1722 limits assumed): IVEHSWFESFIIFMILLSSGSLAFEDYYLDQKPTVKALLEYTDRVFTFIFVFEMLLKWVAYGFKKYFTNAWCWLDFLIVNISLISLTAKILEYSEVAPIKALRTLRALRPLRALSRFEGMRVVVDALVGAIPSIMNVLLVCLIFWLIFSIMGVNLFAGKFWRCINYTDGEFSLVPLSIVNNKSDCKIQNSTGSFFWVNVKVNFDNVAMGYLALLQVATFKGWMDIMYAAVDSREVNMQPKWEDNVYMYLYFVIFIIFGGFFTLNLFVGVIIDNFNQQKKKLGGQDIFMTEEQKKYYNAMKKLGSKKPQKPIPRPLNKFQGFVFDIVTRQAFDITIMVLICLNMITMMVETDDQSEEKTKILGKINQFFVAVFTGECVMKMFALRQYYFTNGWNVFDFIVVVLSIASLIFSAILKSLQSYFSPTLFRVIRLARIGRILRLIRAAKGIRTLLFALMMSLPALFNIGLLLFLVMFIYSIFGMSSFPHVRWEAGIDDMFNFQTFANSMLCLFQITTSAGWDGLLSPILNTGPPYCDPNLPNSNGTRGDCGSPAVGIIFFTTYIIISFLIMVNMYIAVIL

This assay concerns the target human NaV 1.8 (Homo sapiens, UniProt Q9Y5Y9). The experiment in a line: E-VIPR Assay Detecting and Measuring NaV Inhibition Properties. Type of assay: cell-based. The settings on record: HEK cells expressing a truncated form of human NaV 1.8; electrical stimulation, membrane potential FRET dyes; read-out: measured IC50 value in the E-VIPR Assay. An excerpt:
E-VIPR Assay Detecting and Measuring NaV Inhibition Properties
Sodium ion channels are voltage-dependent proteins that can be activated by inducing membrane voltage changes by applying electric fields. The electrical stimulation instrument and methods of use, referred to as E-VIPR, are described in International Publication No. WO 2002/008748 A3 and C.-J. Huang et al. Characterization of voltage-gated sodium channel blockers by electrical stimulation and fluorescence detection of membrane potential, 24 Nature Biotech. 439-46 (2006), both of which are incorporated by reference in their entirety. The instrument comprises a microtiter plate handler, an optical system for exciting the coumarin dye while simultaneously recording the coumarin and oxonol emissions, a waveform generator, a current- or voltage-controlled amplifier, and parallel electrode pairs that are inserted into assay plate wells. Under integrated computer control, this instrument passes user-programmed electrical stimulus protocols to cells within the wells of the microtiter plate.
16-20 hours prior to running the assay on E-VIPR, HEK cells expressing a truncated form of human NaV 1.8 with full channel activity were seeded into microtiter 384-well plates, pre-coated with matrigel, at a density of 25,000 cells per well. 2.5-5% KIR2.1 BacMam virus was added to the final cell suspension before seeding into cell plates. HEK cells were grown in Dulbecco's Modified Eagle's Medium (DMEM) supplemented with 10% FBS (Fetal Bovine Serum, qualified; Sigma #F4135), 1% NEAA (Non-Essential Amino Acids, Gibco #11140), 1% HEPES (Gibco #15630), 1% Pen-Strep (Penicillin-Streptomycin; Gibco #15140) and 5 μg/ml Blasticidin (Gibco #R210-01). Cells were expanded in 5-layer CellSTACK culture chambers or cell culture flasks with vented caps, with 90-95% humidity and 5% CO2.
Compound Loading Buffer (2× concentration): Na/TMA Cl Bath1 Buffer containing HS (omitted in experiments run in the absence of human serum (HS)) 50%, VABSC-1 1 mM, BSA 0.2 mg/ml (in Bath-1), KCl 9 mM, DMSO 0.625%.
Assay Protocol (7 Key Steps):
1) To reach the final concentration in each well, 375 nL of each compound was pre-spotted (in neat DMSO) into polypropylene compound plates at 240× desired final concentration from an intermediate stock concentration of 0.075 mM, in an 11-point dose response, 3-fold dilution, resulting in a top dose of 300 nM final concentration in the cell plate. Vehicle control (neat DMSO), and positive control (an established NaV1.8 inhibitor, 25 μM final in assay in DMSO) were added manually to the outermost columns of each plate respectively. The compound plate was backfilled with 45 μL per well of Compound Loading Buffer resulting in a 240-fold dilution of compound following a 1:1 transfer of compound into the cell plate (see Step 6). Final DMSO concentration for all wells in the assay was 0.625% (0.75% DMSO was supplemented to the Compound Loading Buffer for a final DMSO concentration of 0.625%). This assay dilution protocol was adjusted to enable a higher dose range to be tested in the presence of HS or if the final assay volume was altered.
2) Hexyl Dye Solution was prepared.
3) Cell plates were prepared. On the day of the assay, the media was aspirated, and the cells were washed three times with 80 μL of Bath-1 buffer, maintaining 25 μL residual volume in each well.
4) 25 μL per well of Hexyl Dye Solution was dispensed into the cell plates. The cells were incubated for 20 minutes at room temperature or ambient conditions in darkness.
5) 45 μL per well of Compound Loading Buffer was dispensed into compound plates.
6) The cell plates were washed three times with 80 μL per well of Bath-1 Buffer, leaving 25 µL of residual volume. Then 25 μL per well from compound plate was transferred to each cell plate. The mixture was incubated for 30 minutes at room temperature/ambient conditions. […]
In the case of `Cc1cc(C(C)(CO)C(F)(F)F)c(Cl)cc1-c1cc(=O)c2c(C(N)=O)nccc2[nH]1` (single isomer, unassigned) [Compound 365], the IC50 (as a rule, the concentration that inhibits the measured activity by half) lay in the range of 500 to 2000 nM.

In the case of `CC(C)(C)c1ccc(-c2cc(=O)c3ccccc3[nH]2)cc1` [Compound 5, 2-(4-tert-butylphenyl)-1H-quinolin-4-one], the IC50 fell in the range of 500 to 2000 nM.

For `Cc1ccc(-c2cc(=O)c3ccccc3[nH]2)c(C)c1` [Compound 6, 2-(2,4-dimethylphenyl)-1H-quinolin-4-one], the IC50 was in the range of 2000 to 5000 nM.

For the molecule `Cc1ccc(C(C)(C)C)cc1-c1cc(=O)c2ccccc2[nH]1` [Compound 7, 2-(5-tert-butyl-2-methyl-phenyl)-1H-quinolin-4-one], the IC50 fell in the range of 500 to 2000 nM.

In the case of `Cc1cc(C2CC2)ccc1-c1cc(=O)c2ccccc2[nH]1` [Compound 8, 2-(4-cyclopropyl-2-methyl-phenyl)-1H-quinolin-4-one], the IC50 lay within 500 to 2000 nM.

Consider `Cc1c(-c2cc(=O)c3ccccc3[nH]2)ccc2c1CCC2` [Compound 12, 2-(4-methylindan-5-yl)-1H-quinolin-4-one], for which the IC50 was in the range of 500 to 2000 nM.

Take `Cc1ccc(C(F)(F)F)cc1-c1cc(=O)c2ccccc2[nH]1` [Compound 17, 2-[2-methyl-5-(trifluoromethyl)phenyl]-1H-quinolin-4-one]: the IC50 was 2000 to 5000 nM.

For the molecule `COc1cc(C(F)(F)F)ccc1-c1cc(=O)c2ccccc2[nH]1` [Compound 19, 2-[2-methoxy-4-(trifluoromethyl)phenyl]-1H-quinolin-4-one], the IC50 fell in the range of 2000 to 5000 nM.

As to `COc1cc(C)c(-c2cc(=O)c3ccccc3[nH]2)cc1C` [Compound 23, 2-(4-methoxy-2,5-dimethyl-phenyl)-1H-quinolin-4-one], the IC50 was in the range of 2000 to 5000 nM.

With `CCOc1cc(C(F)(F)F)ccc1-c1cc(=O)c2ccccc2[nH]1` [Compound 28, 2-[2-ethoxy-4-(trifluoromethyl)phenyl]-1H-quinolin-4-one], the 50% inhibitory concentration (IC50) was in the range of 2000 to 5000 nM.

In the case of `Cc1ccc(C)c(-c2cc(=O)c3ccccc3[nH]2)c1` [Compound 52, 2-(2,5-dimethylphenyl)-1H-quinolin-4-one], the IC50 fell in the range of 2000 to 5000 nM.

On to `Cc1cc(OC(F)(F)F)ccc1-c1cc(=O)c2ccccc2[nH]1` [Compound 54, 2-[2-methyl-4-(trifluoromethoxy)phenyl]-1H-quinolin-4-one], for which the IC50 was 500 to 2000 nM.

In the case of `O=c1cc(-c2cc3c(cc2Cl)CCC3)[nH]c2ccccc12` [Compound 70, 2-(6-chloroindan-5-yl)-1H-quinolin-4-one], the IC50 fell in the range of 2000 to 5000 nM.

Turning to `COc1cc(C)c(C)cc1-c1cc(=O)c2ccccc2[nH]1` [Compound 72, 2-(2-methoxy-4,5-dimethyl-phenyl)-1H-quinolin-4-one], the IC50 was in the range of 2000 to 5000 nM.

In the case of `Cc1ccc(-c2cc(=O)c3ccccc3[nH]2)c(C)c1Cl` [Compound 74, 2-(3-chloro-2,4-dimethyl-phenyl)-1H-quinolin-4-one], the IC50 is 500 to 2000 nM.

With `Cc1cc(Cl)ccc1-c1cc(=O)c2ccccc2[nH]1` [Compound 75, 2-(4-chloro-2-methyl-phenyl)-1H-quinolin-4-one], the IC50 lay in the range of 2000 to 5000 nM.

`Cc1cc(C(C)(C)C)ccc1-c1cc(=O)c2c[n+]([O-])ccc2[nH]1` [Compound 107, 2-(4-tert-butyl-2-methyl-phenyl)-6-oxido-1H-1,6-naphthyridin-6-ium-4-one]: the IC50 was in the range of 500 to 2000 nM.

As for `Cc1cc(C(C)(C)C)ccc1-c1cc(=O)c2cccnc2[nH]1` [Compound 111, 2-(4-tert-butyl-2-methyl-phenyl)-1H-1,8-naphthyridin-4-one], the IC50 is 2000 to 5000 nM.

Take `Cc1cc(Cl)c(Cl)cc1-c1cc(=O)c2ccccc2[nH]1` [Compound 117, 2-(4,5-dichloro-2-methyl-phenyl)-1H-quinolin-4-one]: the IC50 lay in the range of 500 to 2000 nM.

For `Cc1cc(Cl)c(Cl)cc1-c1cc(=O)c2cnccc2[nH]1` [Compound 118, 2-(4,5-dichloro-2-methyl-phenyl)-1H-1,6-naphthyridin-4-one], the IC50 lay in the range of 500 to 2000 nM.

As to `Cc1cc(C)c(-c2cc(=O)c3c(C#N)cccc3[nH]2)cc1C` [Compound 123, 4-oxo-2-(2,4,5-trimethylphenyl)-1H-quinoline-5-carbonitrile], the IC50 lay in the range of 500 to 2000 nM.

Consider `Cc1cc(C)c(-c2cc(=O)c3ccccc3[nH]2)cc1C` [Compound 124, 2-(2,4,5-trimethylphenyl)-1H-quinolin-4-one], for which the IC50 was 500 to 2000 nM.

Turning to `Cc1ccc2[nH]c(-c3ccc(C(C)(C)C)cc3C)cc(=O)c2c1` [Compound 126, 2-(4-tert-butyl-2-methyl-phenyl)-6-methyl-1H-quinolin-4-one], the IC50 was 500 to 2000 nM.

For the molecule `Cc1cc(C2(C#N)CC2)ccc1-c1cc(=O)c2ccccc2[nH]1` [Compound 138, 1-[3-methyl-4-(4-oxo-1H-quinolin-2-yl)phenyl]cyclopropanecarbonitrile], the IC50 lay in the range of 2000 to 5000 nM.

As to `CCOC(=O)c1ccc(-c2cc(=O)c3ccccc3[nH]2)c(C)c1` [Compound 166, ethyl 3-methyl-4-(4-oxo-1H-quinolin-2-yl)benzoate], the IC50 is 2000 to 5000 nM.

`COC(C)(C)c1ccc(-c2cc(=O)c3ccccc3[nH]2)c(C)c1` [Compound 180, 2-[4-(1-methoxy-1-methyl-ethyl)-2-methyl-phenyl]-1H-quinolin-4-one]: the IC50 lay in the range of 500 to 2000 nM.

In the case of `Cc1cc(-c2cc(=O)c3c[n+]([O-])ccc3[nH]2)c(C)nc1C(C)(C)C` [Compound 195, 2-(6-tert-butyl-2,5-dimethyl-3-pyridyl)-6-oxido-1H-1,6-naphthyridin-6-ium-4-one], the IC50 is 500 to 2000 nM.

Take `Cc1cc(-c2cc(=O)c3c(=O)[nH]ccc3[nH]2)c(C)nc1C(F)(F)F` [Compound 200, 2-[2,5-dimethyl-6-(trifluoromethyl)-3-pyridyl]-1,6-dihydro-1,6-naphthyridine-4,5-dione]: the IC50 was 500 to 2000 nM.

For `COc1cccc2[nH]c(-c3ccc(C4(C(F)(F)F)CC4)cc3C)cc(=O)c12` [Compound 208, 5-methoxy-2-[2-methyl-4-[1-(trifluoromethyl)cyclopropyl]phenyl]-1H-quinolin-4-one], the IC50 lay within 500 to 2000 nM.

With `Cc1cc(C(C)(C)C)ccc1-c1cc(=O)c2cccc(C)c2[nH]1` [Compound 209, 2-(4-tert-butyl-2-methyl-phenyl)-8-methyl-1H-quinolin-4-one], the half-maximal inhibitory concentration (IC50) lay within 500 to 2000 nM.

`Cc1ccc(C(C)(C)C)cc1-c1cc(=O)c2c(C(N)=O)nccc2[nH]1` [Compound 212, 2-(5-tert-butyl-2-methyl-phenyl)-4-oxo-1H-1,6-naphthyridine-5-carboxamide]: the IC50 fell in the range of 500 to 2000 nM.

On to `Cc1nc(C(C)(C)C)ccc1-c1cc(=O)c2c(C(N)=O)nccc2[nH]1` [Compound 221, 2-(6-tert-butyl-2-methyl-3-pyridyl)-4-oxo-1H-1,6-naphthyridine-5-carboxamide], for which the IC50 fell in the range of 500 to 2000 nM.

Turning to `CCc1cc(-c2cc(=O)c3c(C(N)=O)nccc3[nH]2)c(C)cc1C` [Compound 224, 2-(5-ethyl-2,4-dimethyl-phenyl)-4-oxo-1H-1,6-naphthyridine-5-carboxamide], the IC50 is 500 to 2000 nM.

For `CC(C)(C)c1ccc(-c2cc(=O)c3c(C(N)=O)nccc3[nH]2)c(F)c1` [Compound 228, 2-(4-tert-butyl-2-fluoro-phenyl)-4-oxo-1H-1,6-naphthyridine-5-carboxamide], the IC50 fell in the range of 500 to 2000 nM.

In the case of `Cc1cc(-c2cc(=O)c3c(C(N)=O)nccc3[nH]2)c(C)cc1Cl` [Compound 231, 2-(4-chloro-2,5-dimethyl-phenyl)-4-oxo-1H-1,6-naphthyridine-5-carboxamide], the IC50 is 500 to 2000 nM.
